Assay results taken from patent US5962314A, “Calcium receptor-active molecules” (priority 1997, dated 1999).
Entries after “also recorded” stand apart in the source; their conditions may differ. No end group written: not given here.

How the values were obtained:
[1] = molecular target: T1, parathyroid cell calcium receptor (Bos taurus, UniProt P35384); assay: cell-based; format: cell-based
T1 sequence (P35384 20-1085): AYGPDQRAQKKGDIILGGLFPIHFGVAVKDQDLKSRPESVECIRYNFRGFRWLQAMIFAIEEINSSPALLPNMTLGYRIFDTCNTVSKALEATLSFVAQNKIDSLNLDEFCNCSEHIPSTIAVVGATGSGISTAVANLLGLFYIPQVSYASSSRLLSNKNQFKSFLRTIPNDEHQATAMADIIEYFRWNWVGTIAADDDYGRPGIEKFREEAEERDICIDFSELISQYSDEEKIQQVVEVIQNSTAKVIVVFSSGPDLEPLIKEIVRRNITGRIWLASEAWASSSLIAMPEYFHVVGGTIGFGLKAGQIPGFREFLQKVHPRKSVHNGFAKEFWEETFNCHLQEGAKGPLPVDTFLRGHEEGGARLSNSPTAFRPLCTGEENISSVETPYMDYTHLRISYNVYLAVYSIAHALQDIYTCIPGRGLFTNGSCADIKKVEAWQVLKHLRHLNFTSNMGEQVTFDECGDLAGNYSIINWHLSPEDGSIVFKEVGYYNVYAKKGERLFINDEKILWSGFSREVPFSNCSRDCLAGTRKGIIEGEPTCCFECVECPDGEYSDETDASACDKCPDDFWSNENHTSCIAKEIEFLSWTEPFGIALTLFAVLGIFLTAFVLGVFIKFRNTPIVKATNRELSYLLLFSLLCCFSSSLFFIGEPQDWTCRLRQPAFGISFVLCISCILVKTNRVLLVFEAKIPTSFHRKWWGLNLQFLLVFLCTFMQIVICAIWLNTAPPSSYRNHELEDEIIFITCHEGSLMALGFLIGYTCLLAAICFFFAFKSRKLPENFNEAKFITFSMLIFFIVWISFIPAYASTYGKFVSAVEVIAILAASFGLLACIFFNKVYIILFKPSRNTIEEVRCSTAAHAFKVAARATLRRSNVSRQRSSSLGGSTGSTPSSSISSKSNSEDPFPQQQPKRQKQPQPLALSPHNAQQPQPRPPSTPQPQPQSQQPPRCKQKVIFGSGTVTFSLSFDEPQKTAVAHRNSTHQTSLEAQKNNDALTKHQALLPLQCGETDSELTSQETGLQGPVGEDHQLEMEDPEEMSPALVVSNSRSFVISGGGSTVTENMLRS
Experimental: For example,. bovine parathyroid cells loaded with fura-2 are initially suspended in buffer containing 0.5 mM CaCl2. A test substance is added to the cuvette in a small volume (5-15 μl) and changes in the fluorescence signal are measured. Cumulative increases in the concentration of the test substance are made in the cuvette until some predetermined concentration is achieved or no further changes in fluorescence are noted.
Human parathyroid glands, were obtained from patients undergoing surgical removal of parathyroid tissue for primary or uremic hyperparathyroidism (uremic HPT), and were treated similarly to bovine tissue.
The cells were then pelleted, resuspended in the same buffer, but lacking the ester, and incubated a further 15 minutes at 37° C. The cells were subsequently washed twice with PCB containing 0.5 mM CaCl2 and 0.5% BSA and maintained at room temperature (about 20° C.). Immediately before use, the cells were diluted five-fold with prewarmed 0.5 mM CaCl2 -PCB to obtain a final BSA concentration of 0.1%. The concentration of cells in the cuvette used for fluorescence recording was 1-2×10^6 /ml.
The fluorescence of indicator-loaded cells was measured at 37° C. in a spectrofluorimeter (Biomedical Instrumentation Group, University of Pennsylvania, Philadelphia, Pa.) equipped with a thermostated cuvette holder and magnetic stirrer using excitation and emission wavelengths of 340 and 510 nm, respectively. […] Leakage of dye is dependent on temperature and most occurs within the first 2 minutes after warming the cells in the cuvette. Dye leakage increases only very slowly thereafter. To correct the calibration for dye leakage, cells were placed in the cuvette and stirred at 37° C. for 2-3 minutes. The cell suspension was then removed, the cells pelleted, and the supernatant returned to a clean cuvette. […] This estimate was subtracted from the apparent Fmin.

[2] = molecular target: T2, calcium receptor (Homo sapiens, UniProt P41180); assay: Xenopus oocytes injected with human parathyroid cell mRNA; format: cell-based; conditions: hexacyclen 135 μM; neomycin 100 μM; NPS 382 5 mM
T2 sequence (P41180 20-1078): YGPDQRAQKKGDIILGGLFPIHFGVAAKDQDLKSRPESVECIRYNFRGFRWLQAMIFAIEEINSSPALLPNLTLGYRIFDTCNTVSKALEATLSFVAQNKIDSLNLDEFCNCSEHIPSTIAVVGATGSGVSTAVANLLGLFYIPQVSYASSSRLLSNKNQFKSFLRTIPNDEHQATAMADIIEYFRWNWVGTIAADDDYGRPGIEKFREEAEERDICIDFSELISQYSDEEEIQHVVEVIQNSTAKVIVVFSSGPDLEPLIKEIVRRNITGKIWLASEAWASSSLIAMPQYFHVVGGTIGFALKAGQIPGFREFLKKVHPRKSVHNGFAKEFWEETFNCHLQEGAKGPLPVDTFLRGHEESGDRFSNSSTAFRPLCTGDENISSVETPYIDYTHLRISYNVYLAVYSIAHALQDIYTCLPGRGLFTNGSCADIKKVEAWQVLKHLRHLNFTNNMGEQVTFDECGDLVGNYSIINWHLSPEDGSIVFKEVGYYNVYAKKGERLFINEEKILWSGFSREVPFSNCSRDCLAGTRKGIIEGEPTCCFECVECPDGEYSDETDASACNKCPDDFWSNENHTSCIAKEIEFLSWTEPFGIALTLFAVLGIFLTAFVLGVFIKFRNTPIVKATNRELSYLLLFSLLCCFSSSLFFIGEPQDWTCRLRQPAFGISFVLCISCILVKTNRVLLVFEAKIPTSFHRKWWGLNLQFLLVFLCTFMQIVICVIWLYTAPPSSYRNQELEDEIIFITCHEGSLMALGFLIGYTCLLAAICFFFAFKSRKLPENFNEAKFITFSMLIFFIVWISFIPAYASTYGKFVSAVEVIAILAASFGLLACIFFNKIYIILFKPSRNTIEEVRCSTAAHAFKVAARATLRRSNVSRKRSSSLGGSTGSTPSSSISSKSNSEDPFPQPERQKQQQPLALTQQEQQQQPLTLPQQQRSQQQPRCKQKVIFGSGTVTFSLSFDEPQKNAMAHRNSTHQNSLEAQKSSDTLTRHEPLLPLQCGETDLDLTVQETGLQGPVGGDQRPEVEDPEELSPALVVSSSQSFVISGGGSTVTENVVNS
Experimental: Oocytes were injected with poly(A)^+ -enriched mRNA from human parathyroid tissue (hyperplastic glands from a case of secondary HPT).
(§1) Following incubation, an oocyte was placed into a 100-μl plastic chamber and superfused with MBS at a flow rate of 0.5 ml/min using a peristaltic pump. Test molecules or inorganic polycations were added by rapidly moving the tubing into different buffers. Recording and current-passing electrodes were constructed from thin-wall capillary tubing pulled to a resistance of 1-3 Mohms and filled with 3 M KCl. […] Currents were recorded directly onto a strip chart recorder.
Using this screen allows one to test for an action directly on the calcium receptor. Oocytes expressing the calcium receptor also responded to several molecules active on intact parathyroid cells when screened as follows. […] This offers rather compelling evidence showing that these molecules act on the calcium receptor or on some other protein intimately associated with its function.

[3] = molecular target: T1, parathyroid cell calcium receptor; assay: block of extracellular Ca2+-induced increases in [Ca2+]i in bovine parathyroid cells; format: cell-based
[4] = test system: osteoclast calcium receptor; assay: [Ca2+]i in indo-1-loaded rat osteoclasts; format: cell-based
[5] = test system: bovine parathyroid cells; assay: PTH secretion from bovine parathyroid cells; format: cell-based
Experimental: PTH secretion was measured by first suspending cells in PCB containing 0.5 mM CaCl2 and 0.1% BSA.

[6] = test system: inositol phosphates; assay: inositol phosphate formation in parathyroid cells; format: cell-based, bovine; conditions: 30 seconds
Experimental: After 30 seconds, the reaction was terminated by the addition of CHCl3 :MeOH:HCl and IP1 (circles) and IP3 (triangles) separated by anion exchange chromatography. Each point is the mean of 2 experiments, each performed in triplicate.
This section describes procedures measuring inositol phosphate formation. Membrane phospholipids were labeled by incubating parathyroid cells with 4 μCi/ml ^3 H-myo-inositol for 20-24 hours. Cells were then washed and resuspended in PCB containing 0.5 mM CaCl2 and 0.1% BSA. Incubations were performed in microfuge tubes in the absence or presence of various concentrations of organic polycation for different times. Reactions were terminated by the addition of 1 ml chloroform-methanol-12 N HCl (200:100:1; v/v/v). Aqueous phytic acid hydrolysate (200 μl; 25 μg phosphate/tube). The tubes were centrifuged and 600 μl of the aqueous phase was diluted into 10 ml water.
Inositol phosphates were separated by ion-exchange chromatography using AG1-X8 in either the chloride- or formate-form. When only IP3 levels were to be determined, the chloride-form was used, whereas the formate form was used to resolve the major inositol phosphates (IP3, IP2, and IP1). […] The last eluate was diluted and counted. […] The eluted samples from the formate columns were rotary evaporated, the residues brought up in cocktail, and counted.

[7] = test system: parathyroid calcium receptors; assay: response of calcium receptor-transfected HEK293, CHO and JEG-3 cells; format: cell-based
Experimental: Functional calcium receptor expression was assessed by loading cells with fura-2 and measuring changes in intracellular calcium levels after addition of calcium receptor agonists. Control constructs were prepared by cloning the substance K receptor and the M1 muscarinic receptor cDNAs into similar commercial vectors as described above. Control constructs were transfected into the various cell lines described above, and the response of the cells containing the control constructs to substance K or to carbachol, respectively, was measured. […] Neither control responded to increases in extracellular calcium.

[8] = test system: serum ionized calcium; assay: serum ionized Ca2+ in rats; format: in vivo, rat; conditions: NPS 467 i.p., low calcium diet
Experimental: (§2) Compounds shown to activate the bovine parathyroid cell calcium receptor in vitro were tested for hypocalcemic activity in vivo. Male Sprague-Dawley rats (200 g) were maintained on a low calcium diet for one week prior to receiving test substance or vehicle as control. Blood was collected from the tail vein three hours after the intra-peritoneal administration of NPS 467. […] Serum total calcium, albumin and phosphate were measured by techniques well known in the art.
Rats (male, Sprague-Dawley, 250-300 g) were fed standard rat chow and fasted overnight prior to the experiment. NPS R-467 was suspended in corn oil and administered as a single oral dose through a gavage needle. Three hours later a sample of blood was taken from the tail vein and assessed for ionized Ca^2+ levels.

[9] = test system: PTH; assay: PTH levels in rats; format: in vivo, rat; conditions: NPS 467, preliminary studies
Excerpt: The fall in blood Ca^2+ at this time was paralleled by a proportional fall in the levels of blood total calcium.

[10] = test system: serum albumin or phosphate; assay: serum albumin and phosphate in rats; format: in vivo, rat; conditions: i.p.
Experimental: as §2

[11] = molecular target: T1, parathyroid cell calcium receptor; assay: Cl- current in Xenopus oocytes injected with bovine parathyroid cell mRNA; format: cell-based; parameters: Whole pieces of gland were used to prepare mRNA that directs the expression of the calcium receptor in Xenopus oocytes; expressed in transfected cells; host or cells: Xenopus laevis oocytes injected with parathyroid poly(A)+ mRNA; conditions: oocytes expressing parathyroid calcium receptor, fendiline 100 μM
Experimental: as §1

[12] = test system: cyclic AMP; format: cell-based, bovine
Experimental: Cells were incubated as above for PTH secretion studies and at the end of the incubation, a 0.15-ml sample was taken and transferred to 0.85 ml of hot (70° C.) water and heated at this temperature for 5-10 minutes. The tubes were subsequently frozen and thawed several times and the cellular debris sedimented by centrifugation. Portions of the supernatant were acetylated and cyclic AMP concentrations determined by radioimmunoassay.
Each value is the mean±SEM of three experiments.

Molecule: C1CNCCNCCNCCNCCNCCN1 [Hexacyclen, 1,4,7,10,13,16-hexaaza-cyclooctadecane]
- potency increase relative to pentaethylenehexamine ([1]; ring structure vs straight chain): 25 fold
- mobilization of intracellular Ca2+ in oocytes [2]: caused the mobilization of intracellular Ca^2+

Molecule: NCCCN(CCCN)CCCNCCCCNCCCN(CCCN)CCCN [NPS 382, N^1,N^1,N^5,N^14,N^14-tetrakis-(3-aminopropyl)spermine]
- effect on [Ca2+]i [1]: mobilize intracellular Ca^2+
- relative potency, in words ([1]; parathyroid cells): about twice as potent as NPS 381
- mobilization of intracellular Ca2+ in oocytes [2]: also effective

Molecule: NCCCCCCCCCCCCNC(=O)Cc1ccc(O)cc1O [NPS 021]
- effect on extracellular Ca2+-elicited increase in [Ca2+]i ([3]; 200 μM): inhibited the increase in [Ca^2+ ]i
- effect on basal [Ca2+]i ([3]; 0.5 mM CaCl2): caused no change in [Ca^2+ ]i; also recorded: does not by itself cause any change in [Ca^2+ ]i
- effect on extracellular Ca2+-evoked increase in [Ca2+]i ([3]; around 500 μM): abolished

Molecule: NCCCCNCCCN [Spermidine]
- effect on [Ca2+]i [1]: mobilize intracellular Ca^2+
- effect on [Ca2+]i in osteoclasts [4]: none of these caused any large increase in [Ca^2+ ]i

Molecule: CCCCCCCCCCCCCC(=O)O[C@@H]1[C@@H](C)[C@@]2(O)[C@@H](C=C(CO)C[C@]3(O)C(=O)C(C)=C[C@@H]23)[C@@H]2C(C)(C)[C@]12OC(C)=O [PMA, phorbol myristate acetate]
- effect on concentration-response curves for increases in [Ca2+]i ([1]; 100 nM): shift to the right in the concentration-response curve; also recorded: shifts to the right the concentration-response curves
- effect on concentration-response curves for inhibition of PTH secretion ([5]; 100 nM, 30 minutes): shifts to the right the concentration-response curves
- effect on inositol phosphate formation [6]: depresses the formation of IP1

Molecule: C[N+](C)(C)CCOC(N)=O [carbachol]
- response of calcium receptor-transfected cells [7]: did not respond

Molecule: COc1cccc(C(C)NCCCc2ccccc2)c1 (racemic) [NPS 467]
- effect on serum or whole blood Ca2+ [8]: maximal within three hours
- effect on serum or whole blood Ca2+ ([8]; listed as NPS-467): dose-dependent reduction in serum or whole blood Ca^2+
- effect on circulating PTH [9]: dose-dependent reduction in circulating levels of PTH
- effect on serum albumin or phosphate [10]: no change in serum albumin or phosphate levels

Molecule: CC(Cc1ccccc1)NCCC(c1ccccc1)c1ccccc1 (stereo not drawn) [Prenylamine]
- effect on [Ca2+]i in osteoclasts [4]: mobilization of [Ca^2+ ]i

Molecule: substance K: ligand of substance K receptor (HKTDSFVGLM; ends and bridges not checked; UniProt P20366 98-107, looked up)
- response of calcium receptor-transfected cells [7]: did not respond

Molecule: CC(NCCC(c1ccccc1)c1ccccc1)c1ccccc1 (racemic) [Fendiline]
- effect on Cl- current / intracellular Ca2+ [11]: evokes the mobilization of intracellular Ca^2+
- effect on Cl- current / intracellular Ca2+ ([11]; listed as fendiline): evokes oscillatory increases in Cl^-; also recorded: elicits oscillatory increases in Cl^-

Molecule: protamine
- effect on [Ca2+]i [1]: evoked rapid and transient increases in [Ca^2+ ]i
- effect on intracellular Ca2+ ([1]; neomycin B 30 μM, protamine 1 μg/ml): mobilization of intracellular Ca^2+
- effect on PTH secretion ([5]; bovine parathyroid cells): inhibit PTH secretion; also recorded: inhibited PTH secretion to the same extent as extracellular Ca^2+
- effect on isoproterenol-induced increases in cyclic AMP [12]: depressed isoproterenol-induced increases in cyclic AMP
- effect on inositol phosphate formation [6]: increases the formation of inositol phosphates; also recorded: rapid (within 30 seconds) increase in the formation of IP3
